The values below come from ChEMBL document CHEMBL3098009, “Synthesis of a novel series of artemisinin dimers with potent anticancer activity involving Sonogashira cross-coupling reaction” (2014).

Each structure is given as a SMILES string.

Type in all cases: functional
Experiment [1] can be described thus: Cytotoxicity against human IMR32 cells assessed as growth inhibition at 10 uM by SRB assay. The settings on record: IMR-32, read-out: GI. (In SRB staining, fixed cells bind dye roughly in proportion to their protein.)
Experiment [2] deals with A549. The experiment is described as follows: Cytotoxicity against human A549 cells assessed as growth inhibition at 50 uM by SRB assay. The settings on record: read-out: GI.
Experiment [3] has as its system HeLa. The experiment is described as follows: Cytotoxicity against human HeLa cells assessed as growth inhibition at 10 uM by SRB assay. The following applies: read-out: GI.
For experiment [4], the system named is MCF7. The experiment is described as follows: Cytotoxicity against human MCF7 cells assessed as growth inhibition at 10 uM by SRB assay. The following applies: read-out: GI.
In experiment [5] the test system is MCF7. The experiment is described as follows: Cytotoxicity against human MCF7 cells assessed as growth inhibition at 50 uM by SRB assay. The settings on record: read-out: GI.
Experiment [6] in a line: Cytotoxicity against human prostate cancer cells assessed as growth inhibition at 10 uM by SRB assay. The settings on record: Cancer cell lines, read-out: GI.
A short description of experiment [7]: Cytotoxicity against human IMR32 cells assessed as growth inhibition at 50 uM by SRB assay. The settings on record: IMR-32, read-out: GI.
Experiment [8] in a line: Cytotoxicity against human prostate cancer cells assessed as growth inhibition at 50 uM by SRB assay. The settings on record: Cancer cell lines, read-out: GI.
In experiment [9] the test system is HeLa. The experiment is described as follows: Cytotoxicity against human HeLa cells assessed as growth inhibition at 50 uM by SRB assay. The following applies: read-out: GI.
In experiment [10] the test system is A549. The experiment is described as follows: Cytotoxicity against human A549 cells assessed as growth inhibition at 10 uM by SRB assay. The following applies: read-out: GI.

Regarding `C[C@@H]1CC[C@H]2[C@@H](C)C(OCCC#Cc3ccc(C#CCCOC4O[C@@H]5O[C@@]6(C)CC[C@H]7[C@H](C)CC[C@@H]([C@H]4C)[C@@]57OO6)s3)O[C@@H]3O[C@@]4(C)CC[C@@H]1[C@]32OO4` (stereo partly specified), the inhibition of growth at 10 µM in experiment [1] stood at 26%; in the experiment on HeLa [3], 51%; with MCF7 [4], 31%; in experiment [6] it was 49%; with A549 [10] it was 77%. The inhibition of growth at 50 µM is 78% with A549 [2]; 41% with MCF7 [5]; 28% in experiment [7]; 53% in experiment [8]; 52% in the experiment on HeLa [9].
In the case of `C[C@@H]1CC[C@H]2[C@@H](C)C(OCCC#Cc3cccc(C#CCCOC4O[C@@H]5O[C@@]6(C)CC[C@H]7[C@H](C)CC[C@@H]([C@H]4C)[C@@]57OO6)c3)O[C@@H]3O[C@@]4(C)CC[C@@H]1[C@]32OO4` (stereo partly specified), the inhibition of growth at 10 µM in [1] is 10%; in experiment [6], 45%; with A549 [10], 60%. Besides, the figures for the inhibition of growth at 50 µM (with A549 [2]; in experiment [7]; in [8]) were 65%, 30% and 60%, respectively.
`C[C@@H]1CC[C@H]2[C@@H](C)C(OCC#Cc3ccc(C#CCOC4O[C@@H]5O[C@@]6(C)CC[C@H]7[C@H](C)CC[C@@H]([C@H]4C)[C@@]57OO6)cc3)O[C@@H]3O[C@@]4(C)CC[C@@H]1[C@]32OO4` (stereo partly specified): the inhibition of growth at 10 µM in experiment [1] is 50%; with HeLa [3], 34%; in the experiment on MCF7 [4], 36%; in [6] it was 56%; in the experiment on A549 [10], 67%. Further, the inhibition of growth at 50 µM amounted to 69% with A549 [2]; 45% with MCF7 [5]; 56% in experiment [7]; 68% in experiment [8]; 43% in the experiment on HeLa [9].
With `C[C@@H]1CC[C@H]2[C@@H](C)C(OCC#Cc3ccc(-c4ccc(C#CCOC5O[C@@H]6O[C@@]7(C)CC[C@H]8[C@H](C)CC[C@@H]([C@H]5C)[C@@]68OO7)cc4)cc3)O[C@@H]3O[C@@]4(C)CC[C@@H]1[C@]32OO4` (stereo partly specified), the inhibition of growth at 10 µM in experiment [1] worked out at 34%; in the experiment on HeLa [3], 47%; in the experiment with MCF7 [4], 30%; in experiment [6] it was 46%; with A549 [10] it was 64%. The inhibition of growth at 50 µM with A549 [2] stood at 69%; in the experiment on MCF7 [5] it was 32%; in [7] it was 43%; in experiment [8] it was 68%; in the experiment on HeLa [9], 57%.
For the compound `C[C@@H]1CC[C@H]2[C@@H](C)C(OCC#Cc3ccc(C#CCOC4O[C@@H]5O[C@@]6(C)CC[C@H]7[C@H](C)CC[C@@H]([C@H]4C)[C@@]57OO6)s3)O[C@@H]3O[C@@]4(C)CC[C@@H]1[C@]32OO4` (stereo partly specified), the inhibition of growth at 10 µM is 54% in experiment [1]; 35% with HeLa [3]; 25% in the experiment on MCF7 [4]; 44% in experiment [6]; 70% in the experiment with A549 [10]. Further, the inhibition of growth at 50 µM in the experiment with A549 [2] came to 73%; with MCF7 [5] it was 29%; in experiment [7], 83%; in [8], 47%; in the experiment on HeLa [9], 37%.
`C[C@@H]1CC[C@H]2[C@@H](C)C(OCC#Cc3cccc(C#CCOC4O[C@@H]5O[C@@]6(C)CC[C@H]7[C@H](C)CC[C@@H]([C@H]4C)[C@@]57OO6)c3)O[C@@H]3O[C@@]4(C)CC[C@@H]1[C@]32OO4` (stereo partly specified): the inhibition of growth at 10 µM in experiment [1] was found to be 40%; in experiment [6], 50%; with A549 [10], 65%. Moreover, the values for the inhibition of growth at 50 µM (in the experiment with A549 [2]; in experiment [7]; in [8]) were 70%, 45% and 65%, respectively.
In the case of `C[C@@H]1CC[C@H]2[C@@H](C)C(OCCC#Cc3ccc(C#CCCOC4O[C@@H]5O[C@@]6(C)CC[C@H]7[C@H](C)CC[C@@H]([C@H]4C)[C@@]57OO6)cc3)O[C@@H]3O[C@@]4(C)CC[C@@H]1[C@]32OO4` (stereo partly specified), the inhibition of growth at 10 µM in experiment [1] turned out to be 11%; in the experiment with HeLa [3] it was 20%; in the experiment on MCF7 [4], 26%; in [6] it was 48%; in the experiment on A549 [10] it was 56%. In addition, the inhibition of growth at 50 µM came to 72% in the experiment with A549 [2]; 41% in the experiment on MCF7 [5]; 37% in experiment [7]; 55% in [8]; 24% in the experiment on HeLa [9].
For `C[C@@H]1CC[C@H]2[C@@H](C)C(OCCC#Cc3ccc(-c4ccc(C#CCCOC5O[C@@H]6O[C@@]7(C)CC[C@H]8[C@H](C)CC[C@@H]([C@H]5C)[C@@]68OO7)cc4)cc3)O[C@@H]3O[C@@]4(C)CC[C@@H]1[C@]32OO4` (stereo partly specified), the inhibition of growth at 10 µM in experiment [1] was 4%; in the experiment with HeLa [3], 18%; in the experiment with MCF7 [4] it was 24%; in experiment [6], 41%; with A549 [10], 67%. The inhibition of growth at 50 µM with A549 [2] is 74%; in the experiment with MCF7 [5], 38%; in [7], 27%; in experiment [8], 47%; in the experiment with HeLa [9], 50%.
Consider `C[C@@H]1CC[C@H]2[C@@H](C)C(=O)O[C@@H]3O[C@@]4(C)CC[C@@H]1[C@]32OO4` [ARTEMISININ], for which the inhibition of growth at 10 µM was 24% in experiment [1]; 51% with HeLa [3]; 25% in the experiment with MCF7 [4]; 35% in experiment [6]; 26% in the experiment with A549 [10]. The inhibition of growth at 50 µM with A549 [2] amounted to 38%; with MCF7 [5], 36%; in [7], 34%; in [8], 40%; with HeLa [9], 66%.
Consider `COc1cccc2c1C(=O)c1c(O)c3c(c(O)c1C2=O)C[C@@](O)(C(=O)CO)C[C@@H]3O[C@H]1C[C@H](N)[C@H](O)[C@H](C)O1` [DOXORUBICIN], for which the inhibition of growth at 10 µM in experiment [1] turned out to be 69%.
Turning to `O=c1[nH]cc(F)c(=O)[nH]1` [FLUOROURACIL], the inhibition of growth at 10 µM in the experiment with HeLa [3] is 62%.
For `CO[C@@]12[C@H](COC(N)=O)C3=C(C(=O)C(C)=C(N)C3=O)N1C[C@@H]1N[C@@H]12` [MITOMYCIN], the inhibition of growth at 10 µM in [6] was determined as 65%.
With `CC(=O)O[C@H]1C(=O)[C@@]2(C)[C@H]([C@H](OC(=O)c3ccccc3)[C@]3(O)C[C@H](OC(=O)[C@H](O)[C@@H](NC(=O)c4ccccc4)c4ccccc4)C(C)=C1C3(C)C)[C@]1(OC(C)=O)CO[C@@H]1C[C@@H]2O` [PACLITAXEL], in the experiment with A549 [10], the inhibition of growth at 10 µM is 56%.
